Measurements reported in US9926264B2, “Phenylcarbamate derivatives as formyl peptide receptor modulators” (Allergan, Inc., priority 2013, dated 2018).

Molecular target: T1, FPR2 (Homo sapiens, UniProt P25090)
T1 construct: expressed in transfected cells; host or cells: CHO-Gα16 cells
T1 sequence (P25090 1-351): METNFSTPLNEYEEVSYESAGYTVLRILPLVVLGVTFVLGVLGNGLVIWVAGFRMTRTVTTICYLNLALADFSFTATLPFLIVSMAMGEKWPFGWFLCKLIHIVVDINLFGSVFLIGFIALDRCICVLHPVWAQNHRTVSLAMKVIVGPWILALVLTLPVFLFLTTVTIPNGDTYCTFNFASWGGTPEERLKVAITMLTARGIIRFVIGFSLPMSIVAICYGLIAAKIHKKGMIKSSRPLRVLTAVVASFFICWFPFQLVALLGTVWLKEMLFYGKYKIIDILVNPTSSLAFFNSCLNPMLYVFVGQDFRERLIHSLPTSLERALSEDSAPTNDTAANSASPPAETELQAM
Assay: compound-induced calcium activity on FLIPR Tetra in CHO-Gα16 cells stably expressing FPR2
Assay type: cell-based
Conditions: for Emax: efficacy value in brackets after EC50, read-out: FPR2 Gα16-CHO (% eff); for EC50: tested 0.61 to 10,000 nM
Procedure: CHO-Gα16 cells stably expressing FPR2 were cultured in (F12, 10% FBS, 1% PSA, 400 μg/ml geneticin and 50 μg/ml hygromycin) and HEK-Gqi5 cells stable expressing FPR1 were cultured in (DMEM high glucose, 10% FBS, 1% PSA, 400 μg/ml geneticin and 50 μg/ml hygromycin). In general, the day before the experiment, 18,000 cells/well were plated in a 384-well clear bottom poly-D-lysine coated plate. The following day the screening compound-induced calcium activity was assayed on the FLIPR^Tetra. The drug plates were prepared in 384-well microplates using the EP3 and the MultiPROBE robotic liquid handling systems. Compounds were tested at concentrations ranging from 0.61 to 10,000 nM. Results are expressed as EC50 (nM) and % efficacy values.

SMILES	Emax [%]	EC50 [nM]
CCN(Cc1nnn[nH]1)C(=O)[C@H](CC(C)C)OC(=O)Nc1ccc(C(F)(F)F)cc1 [Compound 32, (1S)-1-{[ethyl(1H-tetrazol-5-ylmethyl)amino]carbonyl}-3-methylbutyl [4-(trifluoromethyl)phenyl]carbamate]	100	0.66
CC(C)C[C@H](OC(=O)Nc1ccc(Br)cc1)C(=O)NCCNC(=O)OC(C)(C)C [Compound 33, (1S)-1-[({2-[(tert-butoxycarbonyl)amino]ethyl}amino)carbonyl]-3-methylbutyl (4-bromophenyl)carbamate]	103	397
CC(C)(C)OC(=O)CNC(=O)[C@H](Cc1ccccc1)OC(=O)Nc1ccc(Br)cc1 [Compound 34, tert-Butyl {[(2S)-2-({[(4-bromophenyl)amino]carbonyl}oxy)-3-phenylpropanoyl]amino}acetate]	103	106
O=C(Nc1ccc(Br)cc1)O[C@@H](Cc1ccccc1)C(=O)NCc1nnn[nH]1 [Compound 35, (1S)-1-benzyl-2-oxo-2-[(1H-tetrazol-5-ylmethyl)amino]ethyl (4-bromophenyl)carbamate]	103	0.83
CN(CC(=O)OC(C)(C)C)C(=O)[C@H](Cc1ccccc1)OC(=O)Nc1ccc(Br)cc1 [Compound 36, tert-Butyl {[(2S)-2-({[(4-bromophenyl)amino]carbonyl}oxy)-3-phenylpropanoyl](methyl)amino}acetate]	105	11.7
CCCN(CC(=O)O)C(=O)[C@H](CC(C)C)OC(=O)Nc1ccc(C(F)(F)F)cc1 [Compound 37, [{(2S)-4-methyl-2-[({[4-(trifluoromethyl)phenyl]amino}carbonyl)oxy]pentanoyl}(propyl)amino]acetic acid]	102	1.2
CC(C)C[C@H](OC(=O)Nc1ccc(C(F)(F)F)cc1)C(=O)N(CC(=O)O)C(C)C [Compound 38, (Isopropyl{(2S)-4-methyl-2-[({[4-(trifluoromethyl)phenyl]amino}carbonyl)oxy]pentanoyl}amino)acetic acid]	107	0.66
CC(C)C[C@H](OC(=O)Nc1ccc(Br)cc1)C(=O)NCCN [Compound 39, (1S)-1-{[(2-aminoethyl)amino]carbonyl}-3-methylbutyl (4-bromophenyl) carbamate]	89	78
O=C(O)CNC(=O)[C@H](Cc1ccccc1)OC(=O)Nc1ccc(Br)cc1 [Compound 40, {[(2S)-2-({[(4-bromophenyl)amino]carbonyl}oxy)-3-phenylpropanoyl]amino}acetic acid]	95	1.3
CN(CC(=O)O)C(=O)[C@H](Cc1ccccc1)OC(=O)Nc1ccc(Br)cc1 [Compound 41, {[(2S)-2-({[(4-Bromophenyl)amino]carbonyl}oxy)-3-phenylpropanoyl](methyl)amino}acetic acid]	98	0.41
CC(C)C[C@H](OC(=O)Nc1ccc(Br)cc1)C(=O)NCCNS(=O)(=O)N(C)C [Compound 42, (1S)-1-{[(2-{[(Dimethylamino)sulfonyl]amino}ethyl)amino]carbonyl}-3-methylbutyl (4-bromophenyl)carbamate]	99	125
CC(C)C[C@H](OC(=O)Nc1ccc(C(F)(F)F)cc1)C(=O)OC(C)(C)C [Intermediate 2, tert-Butyl (2S)-4-Methyl-2-({[4-(trifluoromethyl)phenyl]carbamoyl}oxy)pentanoate]	56	10000
CC(C)(C)OC(=O)[C@H](Cc1ccccc1)OC(=O)Nc1ccc(Br)cc1 [Intermediate 2a, tert-Butyl (2S)-2-({[(4-bromophenyl)amino]carbonyl}oxy)-3-phenyl propanoate]	55	2190
CC(C)C[C@H](OC(=O)Nc1ccc(Br)cc1)C(=O)O [Intermediate 3, (2S)-2-{[(4-Bromophenyl)carbamoyl]oxy}-4-methylpentanoic acid]	85	8.6
CC(C)C[C@H](OC(=O)Nc1ccc(C(F)(F)F)cc1)C(=O)O [Intermediate 4, (2S)-4-Methyl-2-({[4-(Trifluoromethyl)phenyl]carbamoyl}oxy)pentanoic acid]	88	24.7
O=C(Nc1ccc(Br)cc1)O[C@@H](Cc1ccccc1)C(=O)O [Intermediate 4a, (2S)-2-({[(4-bromophenyl)amino]carbonyl}oxy)-3-phenylpropanoic acid]	103	1.43
